Source: US20190359653A1, “SELECTIVE PEPTIDE INHIBITORS OF FRIZZLED” (Genentech, Inc., priority 2016, published 2019)

Assays:
hFZD7 CRD-His = biological target: T1, hFZD7 CRD-His (Homo sapiens, UniProt O75084); assay: SEC-MALS of hFZD7 CRD-His incubated with peptide; assay type: binding
T1 construct: hFZD7 CRD-His [Gln33-Gly168] was expressed as a secreted protein in Trichoplusia ni cells expressing EndoH; made in house; host or cells: Trichoplusia ni cells expressing EndoH, treated with Kifunensine (baculovirus)
Description: Samples were resolved by a Superdex S200 3.2/300 column (General Electric Healthcare Life Science, Pittsburgh, Pa.; cat. no. 28990946) at 0.15 mL/min in 150 mM NaCl, 50 mM Tris-HCl pH 7.5 buffer with 1% DMSO final concentration. Runs were performed on a 1260 infinity HPLC (Agilent Technology, Santa Clara, Calif.) connected to a Dawn Heleos-II multi-angle static Light Scattering (MALS) detector and a Optilab T-rEX differential Refractive Index (dRI) detector (Wyatt Technologies, Santa Barbara, Calif.).
Samples were resolved by a Superdex S200 3.2/300 column (General Electric Healthcare Life Science, Pittsburgh, Pa.; 28990946) at a 0.15 mL/min in 150 mM NaCl, 50 mM Tris-HCl pH 7.5 buffer with 1% DMSO final concentration. Column was connected to a 1260 infinity HPLC (Agilent Technology, Santa Clara, Calif.) connected to a Dawn Heleos-II Multi-Angle static Light Scattering (MALS) detector and the Optilab T-rEX differential Refractive Index (dRI) detectors (Wyatt Technologies, Santa Barbara, Calif.).

[1] = test system: Wnt3a binding to FZD1 CRD, FZD2 CRD, and FZD7 CRD; assay: ELISA of biotinylated Wnt3a binding to FZD CRD-Fc; settings: peptide 0-10 μM
Description: 384-well Maxisorp plates (cat. no. 464718; Thermo Scientific) were incubated with 30 μL of Neutravidin (cat. no. 31000, Thermo Scientific; 2 μg/mL in PBS) overnight at 4° C. Plates were then washed with PBST and blocked with PBS/1% BSA for 1 hour at RT and then washed with PBST prior to further processing. The binding assay was conducted in 96 well plates (cat no. 83007-374; VWR) which were blocked with PBS/1% BSA overnight at 4° C. hFZD4 CRD-Fc or hFZD7 CRD-Fc (63 ng/mL) were incubated with either Bio-Wnt3a (25 ng/mL) or Bio-Wnt5a (50 ng/mL) in the presence of 4-fold serial dilutions of the indicated peptide in PBS overnight at 4° C. All assays included hFZD9 CRD-mIgG2A protein as a negative control. hFZD7 CRD-His was suspended in 150 mM NaCl, 50 mM Tris-HCl at pH 7.5 and when used in assays an equal volume of the same buffer control was used. The binding assay mixtures were transferred to the Neutravidin coated plates and incubated for ˜1 h at RT. The wells were then washed with PBST, incubated with anti-hIgG1-HRP (1:10,000 suspended in PBS supplemented with 1% BSA; cat. no. A18817, Invitrogen), and washed again with PBST. The signal was developed with the addition of TMB reagent (following the manufacturer's recommendation; KPL; 50-76-00) for 15 min prior to the addition of an equal volume of 1 M phosphoric acid for 10 min Absorbance was measured at 450 nm using a Tekan M1000 plate reader. Values were collected and plotted using Prism Graphpad software. All assay conditions using peptides were at 1% DMSO final concentration.
Without being bound be theory, the substantial conformational change induced by dFz7-21 on hFZD7 CRD, as exemplified by the altered geometry of the lipid binding cavity, may facilitate the accommodation of two Wnt molecules simultaneously onto the hFZD7 CRD dimer (FIG. 4e-h).
Similar results were observed using Wnt3a. […] Binding of Wnt3a to FZD1 CRD, FZD2 CRD, and FZD7 CRD increased in the presence of dFz7-21 at concentrations below about 0.5 μM (FIG. 22E), with the most binding seen in the presence of 0.01 μM-0.05 μM dFz7-21. […] Fz7-21S had no effect on Binding of Wnt3a to any of the FZD CRDs tested (FIG. 22F).

[2] = test system: Wnt1-stimulated β-catenin signaling in HEK293-TB cells; assay: luciferase reporter assay, HEK293-TB cells transfected with pCDNA3.2-Wnt1; assay type: cell-based
[3] = test system: Wnt3a-stimulated β-catenin signaling in HEK293-TB cells; assay: luciferase reporter assay, HEK293-TB cells transfected with pCDNA3.2-Wnt3a; assay type: cell-based

LPSDDLEFWSHVMY [Fz7-21S, negative control]
ΔMW (kDa) (hFZD7 CRD-His; 1:10, relative to the DMSO control): 2.6 kDa
MW (kDa) (hFZD7 CRD-His; protein:peptide 1:10): 23.5 kDa
effect on Wnt3a binding to FZD1, FZD2 and FZD7 CRD [1]: showed no effect
inhibition of Wnt1 signaling [2]: not found to inhibit
inhibition of Wnt3a signaling [3]: not found to inhibit
